Test results: paper PMC6979384, “Characterization of the plant homeodomain (PHD) reader family for their histone tail interactions” (Epigenetics & Chromatin, 2020)

What was measured:
Test in all cases: Histone peptide microarray
Type in all cases: binding, human
Conditions in all cases: sheet "Array Heatmap"
ING5 = test system: ING5
Outline: (§1)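 A peptide microarray holding 293 synthetic histone peptides with individual or combinatorial modifications was probed with each GST-PHD protein at 0.5 μM. Values represent mean intensity (±SD) from four replicates.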

KDM4C (TTP) = test system: KDM4C (TTP)
Outline: as §1

TRIM66 (PB) = test system: TRIM66 (PB)
Outline: as §1

DPF2 (PPC2W2) = test system: DPF2 (PPC2W2)
Outline: as §1

KDM5B (1) = test system: KDM5B (1)
Outline: as §1

TAF3 = test system: TAF3
Outline: as §1

PHF21A = test system: PHF21A
Outline: as §1

ING2 = test system: ING2
Outline: as §1

BAZ2B = test system: BAZ2B
Outline: as §1

PHF8 = test system: PHF8
Outline: as §1

CHD5 (PPCC) = test system: CHD5 (PPCC)
Outline: as §1

PHRF1 (RP) = test system: PHRF1 (RP)
Outline: as §1

SP140L = test system: SP140L
Outline: as §1

MORC3 (CW) = test system: MORC3 (CW)
Outline: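 Purified PHD finger domains fused to GST are screened against 293 synthetic histone peptides bearing one or several post-translational modifications. The protein is used at 0.5 μM, and the signal from four replicate arrays is averaged, with standard deviation given.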

DIDO1 = test system: DIDO1
Outline: as §1

MLL5 = test system: MLL5
Outline: as §1

CHD4 (PPCC) = test system: CHD4 (PPCC)
Outline: as §1

PHF23 = test system: PHF23
Outline: as §1

KDM5B (3) = test system: KDM5B (3)
Outline: as §1

ING4 = test system: ING4
Outline: as §1

KDM7A = test system: KDM7A
Outline: as §1

PHF13 = test system: PHF13
Outline: as §1

BPTF (PB) = test system: BPTF (PB)
Outline: as §1

KDM5A (1) = test system: KDM5A (1)
Outline: as §1

ING3 = test system: ING3
Outline: as §1

CHD5 (PCC) = test system: CHD5 (PCC)
Outline: as §1

AIRE (PP) = test system: AIRE (PP)
Outline: as §1

RAG2 = test system: RAG2
Outline: as §1

ING1 = test system: ING1
Outline: as §1

KDM5A (3) = test system: KDM5A (3)
Outline: as §1

PHF2 = test system: PHF2
Outline: as §1

[1] = GST-tagged reader, histone peptide array, total n = 4

## H3K9me2 + K27me1 (1-32): H3 1-20
ING5; GST-tagged ING5, arrays performed twice, total replicate number n = 4
  Array Heatmap signal, ING5: 0.3315
KDM4C (TTP); GST-tagged KDM4C (TTP), arrays performed twice, total replicate number n = 4
  Array Heatmap signal, KDM4C (TTP): 0.4309
TRIM66 (PB); GST-tagged TRIM66 (PB), arrays performed twice, total replicate number n = 4
  Array Heatmap signal, TRIM66 (PB): 0.6366
DPF2 (PPC2W2); GST-tagged DPF2 (PPC2W2), arrays performed twice, total replicate number n = 4
  Array Heatmap signal, DPF2 (PPC2W2): 0.7331
KDM5B (1); GST-tagged KDM5B (1), arrays performed twice, total replicate number n = 4
  Array Heatmap signal, KDM5B (1): 0.6244
TAF3; GST-tagged TAF3, arrays performed twice, total replicate number n = 4
  Array Heatmap signal, TAF3: 0.256
PHF21A; GST-tagged PHF21A, arrays performed twice, total replicate number n = 4
  Array Heatmap signal, PHF21A: 0.4343
ING2; GST-tagged ING2, arrays performed twice, total replicate number n = 4
  Array Heatmap signal, ING2: 0.6071
BAZ2B; GST-tagged BAZ2B, arrays performed twice, total replicate number n = 4
  Array Heatmap signal, BAZ2B: 0.4338
PHF8; GST-tagged PHF8, arrays performed twice, total replicate number n = 4
  Array Heatmap signal, PHF8: 0.3466
CHD5 (PPCC); GST-tagged CHD5 (PPCC), arrays performed twice, total replicate number n = 4
  Array Heatmap signal, CHD5 (PPCC): 0.5173
PHRF1 (RP); GST-tagged PHRF1 (RP), arrays performed twice, total replicate number n = 4
  Array Heatmap signal, PHRF1 (RP): 0.767
SP140L; GST-tagged SP140L, arrays performed twice, total replicate number n = 4
  Array Heatmap signal, SP140L: 0.3321
MORC3 (CW); GST-tagged MORC3 (CW), arrays performed twice, total replicate number n = 4
  Array Heatmap signal, MORC3 (CW): 0.4746
DIDO1; GST-tagged DIDO1, arrays performed twice, total replicate number n = 4
  Array Heatmap signal, DIDO1: 0.7123
MLL5; GST-tagged MLL5, arrays performed twice, total replicate number n = 4
  Array Heatmap signal, MLL5: 0.5528
CHD4 (PPCC); GST-tagged CHD4 (PPCC), arrays performed twice, total replicate number n = 4
  Array Heatmap signal, CHD4 (PPCC): 0.5346
PHF23; GST-tagged PHF23, arrays performed twice, total replicate number n = 4
  Array Heatmap signal, PHF23: 0.5468
KDM5B (3); GST-tagged KDM5B (3), arrays performed twice, total replicate number n = 4
  Array Heatmap signal, KDM5B (3): 0.4925
ING4; GST-tagged ING4, arrays performed twice, total replicate number n = 4
  Array Heatmap signal, ING4: 0.4312
KDM7A; GST-tagged KDM7A, arrays performed twice, total replicate number n = 4
  Array Heatmap signal, KDM7A: 0.3071
PHF13; GST-tagged PHF13, arrays performed twice, total replicate number n = 4
  Array Heatmap signal, PHF13: 0.5951
BPTF (PB); GST-tagged BPTF (PB), arrays performed twice, total replicate number n = 4
  Array Heatmap signal, BPTF (PB): 0.3305
KDM5A (1); GST-tagged KDM5A (1), arrays performed twice, total replicate number n = 4
  Array Heatmap signal, KDM5A (1): 0.4383
ING3; GST-tagged ING3, arrays performed twice, total replicate number n = 4
  Array Heatmap signal, ING3: 0.4513
CHD5 (PCC); GST-tagged CHD5 (PCC), arrays performed twice, total replicate number n = 4
  Array Heatmap signal, CHD5 (PCC): 0.7436
AIRE (PP); GST-tagged AIRE (PP), arrays performed twice, total replicate number n = 4
  Array Heatmap signal, AIRE (PP): 0.4239
RAG2; GST-tagged RAG2, arrays performed twice, total replicate number n = 4
  Array Heatmap signal, RAG2: 0.2412
ING1; GST-tagged ING1, arrays performed twice, total replicate number n = 4
  Array Heatmap signal, ING1: 0.5289
KDM5A (3); GST-tagged KDM5A (3), arrays performed twice, total replicate number n = 4
  Array Heatmap signal, KDM5A (3): 0.5076
PHF2; GST-tagged PHF2, arrays performed twice, total replicate number n = 4
  Array Heatmap signal, PHF2: 0.587

## H3K9me2 + K27me2: H3 6-30
ING5; [1]
  Array Heatmap signal, ING5: 0.3864
KDM4C (TTP); [1]
  Array Heatmap signal, KDM4C (TTP): 0.5461
TRIM66 (PB); [1]
  Array Heatmap signal, TRIM66 (PB): 0.6036
DPF2 (PPC2W2); [1]
  Array Heatmap signal, DPF2 (PPC2W2): 0.6273
KDM5B (1); [1]
  Array Heatmap signal, KDM5B (1): 0.6708
TAF3; [1]
  Array Heatmap signal, TAF3: 0.2757
PHF21A; [1]
  Array Heatmap signal, PHF21A: 0.4962
ING2; [1]
  Array Heatmap signal, ING2: 0.6067
BAZ2B; [1]
  Array Heatmap signal, BAZ2B: 0.4949
PHF8; [1]
  Array Heatmap signal, PHF8: 0.3721
CHD5 (PPCC); [1]
  Array Heatmap signal, CHD5 (PPCC): 0.6064
PHRF1 (RP); [1]
  Array Heatmap signal, PHRF1 (RP): 0.4454
SP140L; [1]
  Array Heatmap signal, SP140L: 0.3642
MORC3 (CW); [1]
  Array Heatmap signal, MORC3 (CW): 0.385
DIDO1; [1]
  Array Heatmap signal, DIDO1: 0.6649
MLL5; [1]
  Array Heatmap signal, MLL5: 0.5274
CHD4 (PPCC); [1]
  Array Heatmap signal, CHD4 (PPCC): 0.615
PHF23; [1]
  Array Heatmap signal, PHF23: 0.5491
KDM5B (3); [1]
  Array Heatmap signal, KDM5B (3): 0.4954
ING4; [1]
  Array Heatmap signal, ING4: 0.4936
KDM7A; [1]
  Array Heatmap signal, KDM7A: 0.3867
PHF13; [1]
  Array Heatmap signal, PHF13: 0.655
BPTF (PB); [1]
  Array Heatmap signal, BPTF (PB): 0.3713
KDM5A (1); [1]
  Array Heatmap signal, KDM5A (1): 0.5009
ING3; [1]
  Array Heatmap signal, ING3: 0.521
CHD5 (PCC); [1]
  Array Heatmap signal, CHD5 (PCC): 0.8305
AIRE (PP); [1]
  Array Heatmap signal, AIRE (PP): 0.5158
RAG2; [1]
  Array Heatmap signal, RAG2: 0.2639
ING1; [1]
  Array Heatmap signal, ING1: 0.5223
KDM5A (3); [1]
  Array Heatmap signal, KDM5A (3): 0.4645
PHF2; [1]
  Array Heatmap signal, PHF2: 0.4856

## H3K9pro: H3 1-20 [Peptide H3K9pro]
ING5; ING5, each array performed twice, total n = 4
  Array Heatmap value (peptide array signal): 0.3309
KDM4C (TTP); KDM4C (TTP), each array performed twice, total n = 4
  Array Heatmap value (peptide array signal): 0.4589
TRIM66 (PB); TRIM66 (PB), each array performed twice, total n = 4
  Array Heatmap value (peptide array signal): 0.5807
DPF2 (PPC2W2); DPF2 (PPC2W2), each array performed twice, total n = 4
  Array Heatmap value (peptide array signal): 0.7007
KDM5B (1); KDM5B (1), each array performed twice, total n = 4
  Array Heatmap value (peptide array signal): 0.6726
TAF3; TAF3, each array performed twice, total n = 4
  Array Heatmap value (peptide array signal): 0.2557
PHF21A; PHF21A, each array performed twice, total n = 4
  Array Heatmap value (peptide array signal): 0.4435
ING2; ING2, each array performed twice, total n = 4
  Array Heatmap value (peptide array signal): 0.6039
BAZ2B; BAZ2B, each array performed twice, total n = 4
  Array Heatmap value (peptide array signal): 0.4231
PHF8; PHF8, each array performed twice, total n = 4
  Array Heatmap value (peptide array signal): 0.3451
CHD5 (PPCC); CHD5 (PPCC), each array performed twice, total n = 4
  Array Heatmap value (peptide array signal): 0.5229
PHRF1 (RP); PHRF1 (RP), each array performed twice, total n = 4
  Array Heatmap value (peptide array signal): 0.5869
SP140L; SP140L, each array performed twice, total n = 4
  Array Heatmap value (peptide array signal): 0.3673
MORC3 (CW); MORC3 (CW), each array performed twice, total n = 4
  Array Heatmap value (peptide array signal): 0.4445
DIDO1; DIDO1, each array performed twice, total n = 4
  Array Heatmap value (peptide array signal): 0.6439
MLL5; MLL5, each array performed twice, total n = 4
  Array Heatmap value (peptide array signal): 0.5292
CHD4 (PPCC); CHD4 (PPCC), each array performed twice, total n = 4
  Array Heatmap value (peptide array signal): 0.5901
PHF23; PHF23, each array performed twice, total n = 4
  Array Heatmap value (peptide array signal): 0.5285
KDM5B (3); KDM5B (3), each array performed twice, total n = 4
  Array Heatmap value (peptide array signal): 0.4382
ING4; ING4, each array performed twice, total n = 4
  Array Heatmap value (peptide array signal): 0.4451
KDM7A; KDM7A, each array performed twice, total n = 4
  Array Heatmap value (peptide array signal): 0.3118
PHF13; PHF13, each array performed twice, total n = 4
  Array Heatmap value (peptide array signal): 0.5854
BPTF (PB); BPTF (PB), each array performed twice, total n = 4
  Array Heatmap value (peptide array signal): 0.3368
KDM5A (1); KDM5A (1), each array performed twice, total n = 4
  Array Heatmap value (peptide array signal): 0.4409
ING3; ING3, each array performed twice, total n = 4
  Array Heatmap value (peptide array signal): 0.4734
CHD5 (PCC); CHD5 (PCC), each array performed twice, total n = 4
  Array Heatmap value (peptide array signal): 0.7611
AIRE (PP); AIRE (PP), each array performed twice, total n = 4
  Array Heatmap value (peptide array signal): 0.411
RAG2; RAG2, each array performed twice, total n = 4
  Array Heatmap value (peptide array signal): 0.2419
ING1; ING1, each array performed twice, total n = 4
  Array Heatmap value (peptide array signal): 0.5254
KDM5A (3); KDM5A (3), each array performed twice, total n = 4
  Array Heatmap value (peptide array signal): 0.4398
PHF2; PHF2, each array performed twice, total n = 4
  Array Heatmap value (peptide array signal): 0.4692
